Test results from patent US20030077628A1, “Method of screening compounds for biological activity” (priority 2002, published 2003).

Molecular target: receptor B-subunit derived from the Escherichia coli O157 toxin (Bacteriophage H30, UniProt P69178)
Type: binding
Settings: pH 7

Sequence of receptor B-subunit derived from the Escherichia coli O157 toxin (P69178 21-89 limits assumed): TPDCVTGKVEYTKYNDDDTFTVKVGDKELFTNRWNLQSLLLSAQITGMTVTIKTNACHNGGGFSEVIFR

Row | SMILES | change of ligand resonances (one-bond 13C-1H splittings) in the presence of the receptor
1 | OC[C@H]1O[C@H](O[C@@H]2[C@H](O)[C@@H](O)[C@H](O[C@H]3[C@H](O)[C@@H](O)C(O)O[C@@H]3CO)O[C@@H]2CO)[C@H](O)[C@@H](O)[C@H]1O (some centres unmarked) [Galα1-4Galβ1-4Glc] | shifted
2 | OC[C@H]1O[C@@H](O[C@H]2[C@H](O)[C@@H](O)C(O)O[C@@H]2CO)[C@H](O)[C@@H](O)[C@H]1O (some centres unmarked) [Galβ1-4Glc, lactose] | unchanged
